Experimental findings from PMC6458995, “MAP4K4 Inhibition Promotes Survival of Human Stem Cell-Derived Cardiomyocytes and Reduces Infarct Size In Vivo” (Cell Stem Cell, 2019) are described below.

One series concerns rat ventricular myocytes. Description: Rat cardiac muscle cell death induced by H2O2 (sub-G1 DNA, flow cytometry). It is filed as cell-based. The protocol:
Ventricular myocytes from 1 to 3 day-old Sprague-Dawley rats were enzymatically dissociated, purified by Percoll gradient centrifugation and pre-plating, and cultured as described ([Oh et al., 2003]). To detect hypodiploid DNA, flow cytometry was performed (XL or LSRII, BD Biosciences), using propidium iodide to measure DNA content and sampling > 5000 cells for each histogram. Myocyte identity was confirmed using FITC-conjugated MF-20 antibody to sarcomeric MyHC (R&D Systems). To detect dissipation of mitochondrial membrane potential (ΔΨm), cells were incubated for 60 min in 5 μg ml^-1 5, 5′, 6, 6’-tetrachloro-1, 1’, 3, 3′-tetraethylbenzimidazolyl carbocyanine iodide (DePsipher; R&D Systems). When ΔΨm is intact, mitochondrial uptake and aggregation of the dye result in red fluorescence; when ΔΨm is disturbed, the dye diffuses to the cytoplasm and reverts to its monomeric green form. Myocyte identity was confirmed using mouse antibody to sarcomeric tropomyosin (Sigma-Aldrich) conjugated with Texas Red-X (Molecular Probes).

Another series addresses T1, endogenous MAP4K4 (Homo sapiens, UniProt O95819).
T1 construct: endogenous in cells; host or cells: HEK293T
Description: In-cell MAP4K4 activity, immune complex kinase assay in HEK293T cells. It is filed as cell-based. The note with it: HEK-293T, 1 h after treatment. The method, then: MAP4K4 was precipitated using M2 antibody to the FLAG epitope, or antibody to endogenous MAP4K4, and protein G-Sepharose. Precipitates were washed twice in lysis buffer, twice with 500 mM LiCl, 100 mM Tris-HCl, pH 7.6, 0.1% Triton X-100, twice with kinase buffer (20 mM MOPS, pH 7.6, 2 mM EGTA, 10 mM MgCl2, 1 mM dithiothreitol, 0.1% Triton X-100, 1 mM Na3VO4), and were then mixed with 10 μg of myelin basic protein (Invitrogen) as substrate, 15 μM ATP, and 10 μCi [γ-^32P]ATP in […] of kinase buffer for 30 min at 30°C ([Yao et al., 1999]). His-MKK6 was used as the substrate for TAK1 ([Zhang et al., 2000]). Reaction mixtures were resolved by SDS-polyacrylamide gel electrophoresis, then were analyzed by western blotting and autoradiography.

The next series deals with infarct size. Kind of series: Myocardial infarction (ischemia-reperfusion), infarct size by TTC/Evans blue. Particulars: 50 mg kg^−1 twice by gavage 10 h apart. It is filed as in vivo, CD-1 female mice.
Series [1] in a line: Glutathione (GSH)-trapping. Type of series: in vitro ADME.
The next series concerns the target cardiac MAP4K4 (Mus musculus, UniProt P97820). Description: Target engagement ex vivo (block to desthiobiotin-ATP binding). Particulars: adult mouse cardiac lysates; versus F1386-0303. The method, then: Lysates were prepared and assayed using a desthiobiotin-ATP probe Kinase Enrichment Kit (Thermo Fisher Scientific) ([Patricelli et al., 2011]). In brief, tissue samples (100-120 mg) were cut into small pieces and resuspended in 1 mL of Lysis Buffer containing protease and phosphatase inhibitors. After homogenization (30 s on ice), the lysates were centrifuged (16,000 x g at 4°C for 10 min) and a buffer-exchange to Reaction Buffer was performed, to remove endogenous ATPs. Protein concentrations were measured by the BCA assay (Thermo Fisher Scientific). Compounds were added to 500 μL of lysate at 2 mg/ml in presence of 20 mM MgCl2 and incubated for 10 min at room temperature. The ActivX desthiobiotin-ATP probe (5 μM) was added, and samples were incubated for 10 min. Reactions were stopped by adding 500 μL of 8 M Urea/Lysis Buffer, and labeled kinases were captured by incubating samples with 60 μL of 50% Streptavidin-Agarose beads. Samples were incubated with constant inversion for 2 hr at room temperature. Samples were centrifuged (1000 x g for 1 min) and washed three times with 500 μL of 4 M Urea/Lysis Buffer. Captured kinases were eluted by boiling in 30 μL of Laemmli sample buffer for 15 min. Samples were analyzed by western blotting for MAP4K4 and for Src or p38 and were normalized to the capture of the untargeted control kinase.

Another series has as its system vCor.4U cells as hEHT. Kind of series: 3D human engineered heart tissue (hEHT) challenged with menadione. It is filed as cell-based. The method, then: Fibrin-based hEHTs were generated between flexible silicone posts as described ([Breckwoldt et al., 2017], [Hansen et al., 2010]), with minor modifications. 1.8 mL well^-1 of 2% agarose in PBS was pipetted into 24-well plates, Teflon spacers (EHT Technologies) were placed inside each well as a casting mold, and the agarose was left to set for 15 min. The spacers were removed from each well, and a pair of polydimethylsiloxane posts was inserted from above (EHT Technologies: Young’s modulus […], length 10 mm, radius, 0.5 mm). VCor.4U cells (4 × 10^6) were resuspended in 400 μL of master mix (340 μL DMEM (Biochrom), 10% heat-inactivated fetal calf serum (GIBCO), 2 mM glutamine (Life Technnologies), 1% penicillin/streptomycin (GIBCO); 60 μL 2x DMEM (GIBCO), 20% horse serum (GIBCO), 2% penicillin/streptomycin). Bovine fibrinogen (Sigma) was added (10 μL: 200 mg mL^-1, 95 μg mL^-1 aprotinin (Sigma), 0.9% NaCl), and 100 μL aliquots were transferred to PCR tubes containing 3 μL of 100 U ml^-1 thrombin (Biopur) in 60% PBS. Cell suspensions then were immediately transferred to the agarose casting molds. After 90 min to allow solidification, 300 μL well^-1 of EHT medium was added (DMEM, 10% horse serum, 0.1% human insulin (Sigma), 0.1% aprotinin), to hydrate the gels for a further 50 min. The hEHTs were then transferred to fresh 24-well plates with 1.5 mL well^-1 of EHT medium, which was replaced every Monday, Wednesday, and Friday for 12 d. Auxotonic force measurements were performed daily by optical tracking ([Hansen et al., 2010]) and calculated on the basis of post deflection distance (δ), post length (L), post radius (R), and the elastic modulus (E), using the formula F = 3πER^4δ4L^-3 ([Schaaf et al., 2011]) and the indicated post parameters. Beating rate and force generation increased between d 5 and 10 and were stable for at least 7 d thereafter. On day 12, the hEHTs were challenged for 24 hr with menadione, in the absence or presence of DMX-5804. Medium, including DMX-5804, was replenished daily. […]

T1 sequence (O95819 whole entry): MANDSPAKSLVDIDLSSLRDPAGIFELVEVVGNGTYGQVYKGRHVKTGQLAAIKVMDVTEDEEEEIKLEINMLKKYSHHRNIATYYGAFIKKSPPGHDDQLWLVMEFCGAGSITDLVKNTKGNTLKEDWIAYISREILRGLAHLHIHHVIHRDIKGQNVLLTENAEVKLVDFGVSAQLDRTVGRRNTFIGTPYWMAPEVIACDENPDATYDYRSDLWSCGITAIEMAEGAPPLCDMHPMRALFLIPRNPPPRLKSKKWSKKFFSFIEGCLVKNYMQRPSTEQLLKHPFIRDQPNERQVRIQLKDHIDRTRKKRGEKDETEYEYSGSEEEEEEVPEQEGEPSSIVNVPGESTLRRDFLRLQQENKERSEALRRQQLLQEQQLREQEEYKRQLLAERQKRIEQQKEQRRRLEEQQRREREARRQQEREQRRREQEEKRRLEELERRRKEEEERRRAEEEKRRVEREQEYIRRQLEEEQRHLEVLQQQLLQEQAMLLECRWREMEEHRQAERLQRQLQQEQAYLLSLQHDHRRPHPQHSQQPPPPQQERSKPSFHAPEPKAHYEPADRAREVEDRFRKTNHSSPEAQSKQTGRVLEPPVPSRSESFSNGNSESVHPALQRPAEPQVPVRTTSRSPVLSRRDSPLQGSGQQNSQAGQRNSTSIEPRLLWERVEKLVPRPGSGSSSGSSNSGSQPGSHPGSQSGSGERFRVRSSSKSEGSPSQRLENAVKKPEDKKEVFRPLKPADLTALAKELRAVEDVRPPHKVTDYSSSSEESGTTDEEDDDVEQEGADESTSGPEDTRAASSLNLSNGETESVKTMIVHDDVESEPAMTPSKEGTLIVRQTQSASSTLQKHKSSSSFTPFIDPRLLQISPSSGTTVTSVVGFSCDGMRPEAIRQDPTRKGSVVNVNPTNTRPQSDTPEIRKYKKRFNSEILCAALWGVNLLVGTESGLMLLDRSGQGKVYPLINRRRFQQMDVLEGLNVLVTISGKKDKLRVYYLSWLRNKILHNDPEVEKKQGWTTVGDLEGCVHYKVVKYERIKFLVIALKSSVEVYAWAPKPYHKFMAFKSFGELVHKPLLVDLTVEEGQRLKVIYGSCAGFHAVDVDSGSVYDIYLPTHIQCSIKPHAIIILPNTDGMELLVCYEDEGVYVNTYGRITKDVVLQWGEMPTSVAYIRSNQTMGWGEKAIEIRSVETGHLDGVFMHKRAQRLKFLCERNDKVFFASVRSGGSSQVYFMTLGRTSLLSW
cardiac MAP4K4, sequence (P97820 2-310 limits assumed): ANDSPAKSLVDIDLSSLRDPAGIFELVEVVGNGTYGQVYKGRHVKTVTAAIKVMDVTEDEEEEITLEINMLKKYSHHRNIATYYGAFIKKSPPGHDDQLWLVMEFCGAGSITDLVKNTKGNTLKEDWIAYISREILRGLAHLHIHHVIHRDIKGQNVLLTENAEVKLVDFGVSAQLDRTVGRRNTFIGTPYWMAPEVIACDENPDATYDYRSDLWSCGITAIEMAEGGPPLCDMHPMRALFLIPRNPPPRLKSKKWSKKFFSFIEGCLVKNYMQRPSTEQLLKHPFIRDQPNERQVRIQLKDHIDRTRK

As for `Oc1ncnc2c1c(-c1ccccc1)cn2-c1ccccc1` [F1386-0303, 5,7-diphenyl-7H-pyrrolo[2,3-d]pyrimidin-4-ol], the rat cardiomyocyte death entry in the series with rat ventricular myocytes (H2O2, even at 1 μM) is recorded as “inhibited”. Besides, the inhibition at 10 µM was about 50% in the series with rat ventricular myocytes (Ventricular myocyte, rat ventricular myocytes, 10 μM) and 70% at endogenous MAP4K4. Besides, in the series on rat ventricular myocytes (rat ventricular myocytes, any of the concentrations (1-10 μM)), the “adverse effect of compound” value was “No adverse effect”.

For the compound `COCCOc1ccc(-c2cn(-c3ccccc3)c3nc[nH]c(=O)c23)cc1` [DMX-5804, 5-[4-(2-methoxy-ethoxy)-phenyl]-7-phenyl-3,7-dihydro-pyrrolo[2,3-d]pyrimidin-4-one], the “infarct size as a proportion of the area at ischemic risk” value worked out at 25.6% with infarct size (post-injury treatment (1 h after reperfusion), vehicle 55.1%) and 20.9% with infarct size (pre-injury treatment (20 min prior to ischemia), vehicle 48.5%). In series [1], the “glutathione (GSH)-trapping” value is listed as “no off-target effect”. In addition, the “greater affinity over the earlier compound (target engagement ex vivo)” value at cardiac MAP4K4 was 10 ×. For the same compound, the “cell death from menadione in hEHT” value with vCor.4U cells as hEHT (10 μM, first 24 h) is given as “suppressed”. In addition, the “adverse effect on cardiomyocyte viability, rhythmicity, calcium handling, mitochondrial function, force generation” value in the series on vCor.4U cells as hEHT (2D culture or hEHT) is “no adverse effect”. For the same compound, the “rescue of contractile function in hEHT” value in the series on vCor.4U cells as hEHT (3 or 10 μM, 60 min and 24 h, not later) was “virtually complete”.
